# Laboratory results from patent US9321737B2, “CDK8-CDK19 selective inhibitors and their use in anti-metastatic and chemopreventative methods for cancer” (SENEX BIOTECHNOLOGY INC, priority 2012, dated 2016).
# How the values were obtained:
# YSK4 = biological target: T1, YSK4 (Homo sapiens, UniProt Q56UN5); test: KinomeScan ATP pocket binding inhibition, YSK4; conditions: 2,000 nM
# T1 construct: purchased KinomeScan, a division of Ambit Biosciences
# T1 sequence (Q56UN5 1-1328): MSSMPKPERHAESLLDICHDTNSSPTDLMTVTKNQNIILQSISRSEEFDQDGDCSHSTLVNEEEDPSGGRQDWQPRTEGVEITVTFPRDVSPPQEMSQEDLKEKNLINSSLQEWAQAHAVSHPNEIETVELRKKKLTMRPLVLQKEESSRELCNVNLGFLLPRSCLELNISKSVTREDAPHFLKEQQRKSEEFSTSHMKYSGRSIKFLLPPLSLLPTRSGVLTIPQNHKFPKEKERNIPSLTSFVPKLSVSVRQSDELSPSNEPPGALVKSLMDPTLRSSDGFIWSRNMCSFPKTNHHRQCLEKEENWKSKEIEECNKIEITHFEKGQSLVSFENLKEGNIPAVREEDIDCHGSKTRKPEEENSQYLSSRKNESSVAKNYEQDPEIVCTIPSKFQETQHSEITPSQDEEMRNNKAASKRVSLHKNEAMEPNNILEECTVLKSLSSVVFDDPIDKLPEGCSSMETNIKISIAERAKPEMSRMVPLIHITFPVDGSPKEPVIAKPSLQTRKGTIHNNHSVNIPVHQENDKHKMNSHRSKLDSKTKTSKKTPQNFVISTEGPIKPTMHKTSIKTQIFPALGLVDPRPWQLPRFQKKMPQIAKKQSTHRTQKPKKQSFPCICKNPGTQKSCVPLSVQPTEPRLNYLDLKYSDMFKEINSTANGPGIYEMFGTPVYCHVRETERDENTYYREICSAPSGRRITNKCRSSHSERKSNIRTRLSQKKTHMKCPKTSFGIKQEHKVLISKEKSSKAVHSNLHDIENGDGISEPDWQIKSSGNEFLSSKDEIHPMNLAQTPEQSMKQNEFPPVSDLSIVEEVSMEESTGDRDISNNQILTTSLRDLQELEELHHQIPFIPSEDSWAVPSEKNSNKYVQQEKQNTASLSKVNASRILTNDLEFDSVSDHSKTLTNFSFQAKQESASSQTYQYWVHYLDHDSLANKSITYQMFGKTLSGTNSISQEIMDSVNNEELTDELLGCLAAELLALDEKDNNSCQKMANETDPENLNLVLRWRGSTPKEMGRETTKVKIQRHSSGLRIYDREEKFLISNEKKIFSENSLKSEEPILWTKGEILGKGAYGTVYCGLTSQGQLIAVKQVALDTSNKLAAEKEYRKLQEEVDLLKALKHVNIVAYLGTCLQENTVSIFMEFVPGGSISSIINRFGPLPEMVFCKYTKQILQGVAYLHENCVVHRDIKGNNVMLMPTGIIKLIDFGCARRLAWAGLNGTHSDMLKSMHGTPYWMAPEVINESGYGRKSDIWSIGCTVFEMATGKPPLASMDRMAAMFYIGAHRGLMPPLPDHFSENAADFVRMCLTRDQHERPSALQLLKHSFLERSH
# Source text: (§1) (16) The results of this analysis are presented in FIGS. 6A-B in the form of an evolutionary dendrogram of the kinase family, where kinase inhibition is represented by red circles, the size of which represents the magnitude of the inhibition.
# MDA-MB-468 [1] = test: MDA-MB-468 TNBC xenograft model; format: in vivo, female nude mice; conditions: 40 mg/kg Senexin B daily i.p.; 4 mg/kg doxorubicin two injections two weeks apart
# Method: Female nude mice were inoculated with MDA-MB-468 cells, and once palpable tumors were formed, mice were randomized into 4 groups, treated daily i.p. with vehicle alone (n=12), 40 mg/kg Senexin B, two injections with 4 mg/kg doxorubicin two weeks apart, or doxorubicin combined with Senexin B (n=8 in each of the latter groups).
# [2] = test system: β-catenin-dependent TOPFLASH promoter in HCT116 colon carcinoma cells; test: β-catenin-dependent TOPFLASH luciferase assay; format: cell-based; conditions: different concentrations
# Method: The effect of different concentrations of Senexin B on luciferase expression from β-catenin-dependent TOPFLASH promoter in HCT116 colon carcinoma cells was measured as described in US Patent Publication 20120071477 for Senexin A (SNX2-1-53).
# [3] = test system: MDA-MB-468 triple-negative breast cancer (TNBC) cells; test: Pretreatment and treatment, MDA-MB-468 orthotopic engraftment; format: in vivo, female nude mice
# Method: Next we tested the effect of 5-day pretreatment with 25 mg/kg daily doses of Senexin B (i.p.) on the engraftment of MDA-MB-468 triple-negative breast cancer (TNBC) cells, injected orthotopically in the fat pad of 6-8 week old female nude mice (4 per group), following the last Senexin B treatment. The appearance of palpable tumors was scored every day. […] In the experiment shown in FIG. 9B, mice were treated (daily i.p. injections with 40 mg/kg Senexin B) both before MDA-MB-468 injection (for three days) and after the injection.
# [4] = Pharmacokinetics in mouse plasma (gavage); format: in vivo; conditions: mice, gavage 100 mg/kg
# CDK8 = CDK8 (Homo sapiens, UniProt P49336); test: Kd determination, CDK8; format: binding; conditions: in duplicate
# Chain of CDK8 (P49336 whole entry): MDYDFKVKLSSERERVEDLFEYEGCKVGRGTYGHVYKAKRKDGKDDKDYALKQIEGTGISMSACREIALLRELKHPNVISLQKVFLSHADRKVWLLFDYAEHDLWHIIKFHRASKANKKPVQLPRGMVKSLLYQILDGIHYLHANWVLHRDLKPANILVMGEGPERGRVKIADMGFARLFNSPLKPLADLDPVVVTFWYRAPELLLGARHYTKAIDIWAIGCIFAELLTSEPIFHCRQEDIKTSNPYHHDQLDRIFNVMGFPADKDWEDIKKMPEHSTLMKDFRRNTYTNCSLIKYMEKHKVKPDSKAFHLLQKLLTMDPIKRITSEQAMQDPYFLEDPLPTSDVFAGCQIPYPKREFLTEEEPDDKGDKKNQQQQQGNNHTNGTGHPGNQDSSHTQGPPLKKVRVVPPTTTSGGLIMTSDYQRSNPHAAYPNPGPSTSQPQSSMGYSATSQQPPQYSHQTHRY
# Source text: as §1
# [5] = Pharmacokinetics in rat plasma; format: in vivo; conditions: i.p. 40 mg/kg
# MDA-MB-157 = test: Breast carcinoma cell growth, MTT, MDA-MB-157; format: cell-based; conditions: five days
# [6] = test system: A549 human lung xenograft tumors; test: Pretreatment before A549 xenograft injection; format: in vivo, CB-17 SCID mice; conditions: 5 daily i.p. 40 mg/kg before s.c. A549 injection; p<0.007 on days 21 and 24
# Method: Mice were then injected s.c. with 1×10^6 cells of human A549 lung cancer cell line; the tumor cells were injected in the afternoon of the same day when the last dose of treatment was administered in the morning. Starting from day 7 after tumor injection, mice were monitored for tumor formation twice a week, with 3-4 day intervals, until day 24 after tumor injection; tumor volumes were calculated via caliper measurements. By the end of the study, all the mice in both groups developed measurable tumors. […] Each point represents mean and standard deviation of tumor volume within a group of 10 mice.
# MDA-MB-468 [7] = test: Breast carcinoma cell growth, MTT, MDA-MB-468; format: cell-based; conditions: five days
# 4T1 = test: Breast carcinoma cell growth, MTT, 4T1; format: cell-based; conditions: five days
structure (smiles),measurement,setting,value
CN1CCN(C(=O)c2ccc3cc(CCNc4ncnc5ccc(C#N)cc45)ccc3c2)CC1 [SNX2-1-165],% inhibition of YSK4,YSK4,59%
same,tumor growth (tumor volumes after 30 days of treatment),MDA-MB-468 [1],significantly slowed down the tumor growth
same,luciferase expression from TOPFLASH promoter (β-catenin activity),[2],concentration-dependent inhibition
same,appearance of palpable tumors,[3]; 5-day pretreatment 25 mg/kg daily i.p.,significantly slower appearance of palpable tumors
same,"tumor growth (tumor volumes, caliper)","[3]; daily i.p. 40 mg/kg, three days before and after injection",strong and sustained inhibition of tumor growth
same,oral availability,[4],orally available
same,peak plasma concentrations,[4],~50 µM
same,Kd,CDK8,140 nM
same,area under the curve (AUC),[5],14100 ng·h/mL
same,"growth inhibition, MDA-MB-157",MDA-MB-157,dose-dependent growth inhibition
same,tumor growth (tumor volume) after pretreatment,[6],significantly slower tumor growth
same,"growth inhibition, MDA-MB-468",MDA-MB-468 [7],dose-dependent growth inhibition
same,"growth inhibition, 4T1",4T1,not inhibited except for the highest concentrations
